This note sets out measurements from publication PMC10388202, “Single amino acid–based PROTACs trigger degradation of the oncogenic kinase BCR–ABL in chronic myeloid leukemia (CML)” (The Journal of Biological Chemistry, 2023).

Values joined by “and” are separate entries in the source; they are usually repeats but may differ in a detail not shown here. Identical values can stand only once. “Also recorded” adds a separate entry of the source. Like-named read-outs stand apart in the source and are kept apart here. Peptide text beside a SMILES is read from it. * marks the point of attachment. Cbz = O=C(OCc1ccccc1)*

A short description of data set [1]: Body weight of mice in K562 xenograft model. Type of data set: in vivo. The protocol: (§1) To evaluate the effects of the N-end rule–based PROTAC on tumor growth in vivo, we set up a K562 CML xenograft mouse model. K562 cells were subcutaneously implanted into the right flank of female nude mice. When the tumors reached a palpable volume of about 50 to 80 mm^3 at day 7, the mice bearing K562 tumors were then divided into two groups randomly and administered every other day with either vehicle or Arg-PEG1-Dasa (10 mg/kg) for total 10 doses by intraperitoneal injection. Tumor volumes were measured at indicated time with calipers. When sacrificed on day 27, the tumors were harvested and photographed (Fig. 6A). The amount of BCR–ABL protein in vivo upon Arg-PEG1-Dasa treatment was examined in K562 xenograft mouse model using the immunohistochemistry (Fig. 6B) and immunoblot (Fig. 6C). […]. Further studies are needed to optimize PROTAC or administration strategy to achieve better therapeutic effects.
(§2) K562 cells (1 × 10^7 cells/200 μl) were subcutaneously injected into the right flank of 4-week-old female nude mice. […]. The drugs were subsequently administered by i.p. injection every other day with either vehicle, Arg-PEG1-Dasa, or Dasa (10 mg/kg) for total 10 doses. The growth of tumors in mice was measured with a Vernier caliper. The tumor volume was determined using the formula volume = 0.5 × (length) × (width)^2. […]

In data set [2] the test system is K562 xenograft. The data set can be described thus: K562 CML xenograft mouse model, tumor growth. Type of data set: in vivo. The note with it: nude mice, 10 mg/kg i.p. every other day, 10 doses, day 27. The protocol:
as §1, §2

Data set [3] relates to pSTAT5. Description: STAT5 phosphorylation after drug washout (immunoblot). It is filed as cell-based, human. Conditions: K562 cells, 1 nM 2 days, compound-free medium. The method, then: For controls, we also examined the activity of the PROTAC without the single amino acid (an intermediate product NH2-PEG1-Dasa, Fig. S1A) or Dasa alone on cell viability of K562 cells for 48 h. […] Moreover, the ability of Arg-PEG1-Dasa–mediated degradation of BCR–ABL was mitigated by cotreatment with excess Dasa or NH2-PEG1-Dasa in the competition assay (Fig. 2F). One advantage of PROTACs versus traditional inhibitors is that only the transient drug–target interaction is needed for its target suppression.
Cells were collected and lysed in radioimmunoprecipitation assay buffer (50 mM Tris–HCl [pH 8.0], 1% NP-40, 150 mM NaCl, 0.1% SDS, 0.5% sodium deoxycholate, and 1× complete protease inhibitor cocktail) on ice for 20 min and centrifuged at 15,000 rpm for 10 min at 4 °C to collect the supernatant. After protein concentrations were measured by the bicinchoninic acid protein assay kit (Thermo Scientific), samples with equal amounts of proteins were mixed with loading buffer and denatured by boiling. Protein lysates were resolved by SDS-PAGE and transferred to polyvinylidene fluoride membranes. Then, the membranes were blocked in 5% nonfat milk for 1 h at room temperature, incubated with a primary antibody overnight at 4 °C, and then incubated with horseradish peroxidase–conjugated secondary antibodies for 1 h at room temperature. […]
(In general: Immunoblotting shows a protein as a band on a membrane.)

Data set [4] has as its system K562 cells. Description: K562 cell growth after drug washout (CCK-8). Conditions: 1 nM 48 h, drug-free medium 1 to 4 days. Type of data set: cell-based, human. The protocol: Figure 2 Arg-PEG (1–4)-Dasa induced the degradation of BCR–ABL through the proteasome.A, K562 cells were incubated with Arg-PEG (1–4)-Dasa bearing different numbers of PEG linker at indicated concentration for 48 h. The expression of various proteins indicated was determined by immunoblotting. B, K562 cell viability was examined using CCK-8 assays after the treatment with Arg-PEG (1–4)-Dasa for 48 h at various concentrations (0, 0.01, 0.1, 0.25, 0.5, 0.75, 1, and 2.5 nM). C, immunoblot analysis of the indicated proteins in K562 cells treated with various compounds at 1 nM for 48 h. D, immunoblot analysis of the proteins indicated in K562 cells treated with gradually increasing doses of Arg-PEG1-Dasa for 48 h. E, immunoblot analysis of the indicated proteins in K562 cells treated with DMSO, Arg-PEG1-Dasa, Dasa, or NH2-PEG1-Dasa at 1 nM for 48 h. F, immunoblot analysis of the indicated proteins in K562 cells pretreated with Dasa or NH2-PEG1-Dasa (1 nM) for 2 h followed by Arg-PEG1-Dasa treatment at 1 nM for 48 h. G and H, K562 cells were treated with indicated compounds at 1 nM for 2 days, following washout and incubation compound-free medium. G, cell growth was detected using CCK-8 assays at the indicated times. H, the protein level indicated was tested with immunoblot. […]

Data set [5] concerns K562 cells. The data set can be described thus: K562 cell viability, CCK-8 assay. Type of data set: cell-based. Conditions: Homo sapiens, 48 h, read-out: IC50 (half maximal inhibitory concentration), K562 proliferation. The protocol:
K562 cells (5 × 10^3 cells per well) were grown in 96-well plates with 100 μl medium. After the treatment with the PROTACs at various concentrations (0, 0.01, 0.1, 0.25, 0.5, 0.75, 1, and 2.5 nM) for 48 h, CCK-8 solution was added to each well and incubated for 2 h at 37 °C, and the number of viable cells was determined by measuring the absorbance of the converted dye at a 450 nm wavelength, according to the manufacturer’s instructions (Yeasen). Each experiment was performed at least three times independently.

Data set [6] has as its target T1, BCR–ABL (Homo sapiens, UniProt P00519+P11274). Description: BCR–ABL degradation in K562 cells (immunoblot). It is filed as cell-based. Conditions: for time at which BCR–ABL reduction appears: 1 nM; for DC50: immunoblot, read-out: DC50 (drug concentration that degrades 50% protein). More on the design: assessed in human CML K562 cells bearing BCR–ABL; host or cells: K562. The method, then:
(§3) The ability of Arg-PEGn-Dasa PROTACs to induce BCR–ABL degradation was assessed in human CML K562 cells bearing BCR–ABL. […] We next evaluated the impact of Arg-PEGn-Dasa on cell proliferation in K562 cells using Cell Counting Kit-8 (CCK-8) assay.
(§4) Cells were collected and lysed in radioimmunoprecipitation assay buffer (50 mM Tris–HCl [pH 8.0], 1% NP-40, 150 mM NaCl, 0.1% SDS, 0.5% sodium deoxycholate, and 1× complete protease inhibitor cocktail) on ice for 20 min and centrifuged at 15,000 rpm for 10 min at 4 °C to collect the supernatant. After protein concentrations were measured by the bicinchoninic acid protein assay kit (Thermo Scientific), samples with equal amounts of proteins were mixed with loading buffer and denatured by boiling. Protein lysates were resolved by SDS-PAGE and transferred to polyvinylidene fluoride membranes. Then, the membranes were blocked in 5% nonfat milk for 1 h at room temperature, incubated with a primary antibody overnight at 4 °C, and then incubated with horseradish peroxidase–conjugated secondary antibodies for 1 h at room temperature. Subsequently, the membranes were probed with ECL reagent (Millipore), and proteins were visualized by a Tanon-5200 Automatic Chemiluminescence Imaging Analysis System (Tanon).

The target in data set [7] is T2, BCR–ABL (Homo sapiens, UniProt P00519).
T2 construct: assessed in human CML K562 cells bearing BCR–ABL; host or cells: K562
T2 sequence (P00519 whole entry, looked up): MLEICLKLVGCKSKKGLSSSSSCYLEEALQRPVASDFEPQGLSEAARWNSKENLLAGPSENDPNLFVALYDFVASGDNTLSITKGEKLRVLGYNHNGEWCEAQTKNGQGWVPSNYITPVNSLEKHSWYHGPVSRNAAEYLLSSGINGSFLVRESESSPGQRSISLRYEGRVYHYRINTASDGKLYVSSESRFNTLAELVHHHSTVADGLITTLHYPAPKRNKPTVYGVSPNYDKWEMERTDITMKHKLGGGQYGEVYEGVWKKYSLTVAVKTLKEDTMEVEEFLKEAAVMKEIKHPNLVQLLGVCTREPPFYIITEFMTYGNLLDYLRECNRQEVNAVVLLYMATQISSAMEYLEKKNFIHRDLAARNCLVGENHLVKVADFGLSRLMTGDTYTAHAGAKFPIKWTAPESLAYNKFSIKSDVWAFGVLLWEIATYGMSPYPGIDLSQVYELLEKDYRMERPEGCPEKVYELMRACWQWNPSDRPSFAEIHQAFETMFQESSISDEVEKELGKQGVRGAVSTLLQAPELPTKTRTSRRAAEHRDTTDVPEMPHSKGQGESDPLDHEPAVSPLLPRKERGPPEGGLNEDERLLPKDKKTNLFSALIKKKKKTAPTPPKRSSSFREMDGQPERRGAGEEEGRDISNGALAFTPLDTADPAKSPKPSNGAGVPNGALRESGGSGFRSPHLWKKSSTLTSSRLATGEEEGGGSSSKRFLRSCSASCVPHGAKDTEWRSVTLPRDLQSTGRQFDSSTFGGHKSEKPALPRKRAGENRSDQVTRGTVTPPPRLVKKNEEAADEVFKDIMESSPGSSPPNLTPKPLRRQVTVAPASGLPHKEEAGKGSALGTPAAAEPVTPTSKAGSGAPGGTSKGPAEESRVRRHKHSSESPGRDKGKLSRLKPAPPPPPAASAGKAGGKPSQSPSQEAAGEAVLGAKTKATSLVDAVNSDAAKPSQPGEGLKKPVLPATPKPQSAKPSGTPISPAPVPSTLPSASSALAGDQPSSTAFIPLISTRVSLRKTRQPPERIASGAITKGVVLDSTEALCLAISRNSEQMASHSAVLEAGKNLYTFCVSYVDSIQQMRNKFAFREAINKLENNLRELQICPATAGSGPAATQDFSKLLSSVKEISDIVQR
Description: BCR–ABL degradation in K562 cells (immunoblot). The note with it: 5 nM, 48 h, read-out: DMax (maximum degradation percentage in comparison with control) at 5 nM. Type of data set: cell-based. The method, then: as §3, §4

The subject of data set [8] is glutathione-S-transferase-BCR–ABL. Description: Ubiquitination assay of GST-BCR–ABL in HEK293T cells (denaturing IP). Conditions: HEK293T cells coexpressing GST-BCR–ABL and myc-Ub, 48 h. It is filed as cell-based, human. The method, then:
To determine the degradation pathway of BCR–ABL induced by PROTAC, we added lysosome acidification inhibitor chloroquine or proteasome inhibitor MG132 into Arg-PEG1-Dasa–treated K562 cells. […] To ascertain that Arg-PEG1-Dasa induced BCR–ABL turnover, we monitored the degradation kinetics of BCR–ABL with or without the PROTAC treatment. K562 cells were treated with cycloheximide to block protein synthesis and sampled at various time points for BCR–ABL levels. […] To further evaluate the involvement of the proteasome in PROTAC-induced degradation, we also added the proteasome inhibitor MG132 in the reaction. […] We next sought to investigate the Arg-PEG1-Dasa–induced ubiquitination of BCR–ABL.
Ubiquitination of BCR–ABL was detected using denatured immunoprecipitation. Cells were lysed in SDS-denaturing buffer (50 mM Tris–HCl [pH 7.4], 150 mM NaCl, 1% NP-40, 1% SDS, and 0.5% sodium deoxycholate) and boiled for 10 min. Cell lysates were then diluted 10-fold in native lysis buffer (50 mM Tris–HCl [pH 7.4], 150 mM NaCl, 1% NP-40, and 0.5% sodium deoxycholate). After centrifugation at 15,000 rpm for 10 min, the supernatants were immunoprecipitated using glutathione-Sepharose 4B beads (GE Healthcare) and incubated for 2 h at 4 °C. Beads were then washed five times using the native lysis buffer. […]

Data set [9] concerns the target T1, BCR–ABL. Description: BCR–ABL protein in K562 xenograft tumors (immunohistochemistry, immunoblot). The note with it: nude mice, 10 mg/kg i.p. every other day, 10 doses, IHC and immunoblot.
Description: To evaluate the effects of the N-end rule–based PROTAC on tumor growth in vivo, we set up a K562 CML xenograft mouse model. K562 cells were subcutaneously implanted into the right flank of female nude mice. […] Tumor volumes were measured at indicated time with calipers. When sacrificed on day 27, the tumors were harvested and photographed (Fig. 6A).
Cells were collected and lysed in radioimmunoprecipitation assay buffer (50 mM Tris–HCl [pH 8.0], 1% NP-40, 150 mM NaCl, 0.1% SDS, 0.5% sodium deoxycholate, and 1× complete protease inhibitor cocktail) on ice for 20 min and centrifuged at 15,000 rpm for 10 min at 4 °C to collect the supernatant. After protein concentrations were measured by the bicinchoninic acid protein assay kit (Thermo Scientific), samples with equal amounts of proteins were mixed with loading buffer and denatured by boiling. Protein lysates were resolved by SDS-PAGE and transferred to polyvinylidene fluoride membranes. Then, the membranes were blocked in 5% nonfat milk for 1 h at room temperature, incubated with a primary antibody overnight at 4 °C, and then incubated with horseradish peroxidase–conjugated secondary antibodies for 1 h at room temperature. Subsequently, the membranes were probed with ECL reagent (Millipore), and proteins were visualized by a Tanon-5200 Automatic Chemiluminescence Imaging Analysis System (Tanon). […]

T1 sequence (P11274+P00519 fused): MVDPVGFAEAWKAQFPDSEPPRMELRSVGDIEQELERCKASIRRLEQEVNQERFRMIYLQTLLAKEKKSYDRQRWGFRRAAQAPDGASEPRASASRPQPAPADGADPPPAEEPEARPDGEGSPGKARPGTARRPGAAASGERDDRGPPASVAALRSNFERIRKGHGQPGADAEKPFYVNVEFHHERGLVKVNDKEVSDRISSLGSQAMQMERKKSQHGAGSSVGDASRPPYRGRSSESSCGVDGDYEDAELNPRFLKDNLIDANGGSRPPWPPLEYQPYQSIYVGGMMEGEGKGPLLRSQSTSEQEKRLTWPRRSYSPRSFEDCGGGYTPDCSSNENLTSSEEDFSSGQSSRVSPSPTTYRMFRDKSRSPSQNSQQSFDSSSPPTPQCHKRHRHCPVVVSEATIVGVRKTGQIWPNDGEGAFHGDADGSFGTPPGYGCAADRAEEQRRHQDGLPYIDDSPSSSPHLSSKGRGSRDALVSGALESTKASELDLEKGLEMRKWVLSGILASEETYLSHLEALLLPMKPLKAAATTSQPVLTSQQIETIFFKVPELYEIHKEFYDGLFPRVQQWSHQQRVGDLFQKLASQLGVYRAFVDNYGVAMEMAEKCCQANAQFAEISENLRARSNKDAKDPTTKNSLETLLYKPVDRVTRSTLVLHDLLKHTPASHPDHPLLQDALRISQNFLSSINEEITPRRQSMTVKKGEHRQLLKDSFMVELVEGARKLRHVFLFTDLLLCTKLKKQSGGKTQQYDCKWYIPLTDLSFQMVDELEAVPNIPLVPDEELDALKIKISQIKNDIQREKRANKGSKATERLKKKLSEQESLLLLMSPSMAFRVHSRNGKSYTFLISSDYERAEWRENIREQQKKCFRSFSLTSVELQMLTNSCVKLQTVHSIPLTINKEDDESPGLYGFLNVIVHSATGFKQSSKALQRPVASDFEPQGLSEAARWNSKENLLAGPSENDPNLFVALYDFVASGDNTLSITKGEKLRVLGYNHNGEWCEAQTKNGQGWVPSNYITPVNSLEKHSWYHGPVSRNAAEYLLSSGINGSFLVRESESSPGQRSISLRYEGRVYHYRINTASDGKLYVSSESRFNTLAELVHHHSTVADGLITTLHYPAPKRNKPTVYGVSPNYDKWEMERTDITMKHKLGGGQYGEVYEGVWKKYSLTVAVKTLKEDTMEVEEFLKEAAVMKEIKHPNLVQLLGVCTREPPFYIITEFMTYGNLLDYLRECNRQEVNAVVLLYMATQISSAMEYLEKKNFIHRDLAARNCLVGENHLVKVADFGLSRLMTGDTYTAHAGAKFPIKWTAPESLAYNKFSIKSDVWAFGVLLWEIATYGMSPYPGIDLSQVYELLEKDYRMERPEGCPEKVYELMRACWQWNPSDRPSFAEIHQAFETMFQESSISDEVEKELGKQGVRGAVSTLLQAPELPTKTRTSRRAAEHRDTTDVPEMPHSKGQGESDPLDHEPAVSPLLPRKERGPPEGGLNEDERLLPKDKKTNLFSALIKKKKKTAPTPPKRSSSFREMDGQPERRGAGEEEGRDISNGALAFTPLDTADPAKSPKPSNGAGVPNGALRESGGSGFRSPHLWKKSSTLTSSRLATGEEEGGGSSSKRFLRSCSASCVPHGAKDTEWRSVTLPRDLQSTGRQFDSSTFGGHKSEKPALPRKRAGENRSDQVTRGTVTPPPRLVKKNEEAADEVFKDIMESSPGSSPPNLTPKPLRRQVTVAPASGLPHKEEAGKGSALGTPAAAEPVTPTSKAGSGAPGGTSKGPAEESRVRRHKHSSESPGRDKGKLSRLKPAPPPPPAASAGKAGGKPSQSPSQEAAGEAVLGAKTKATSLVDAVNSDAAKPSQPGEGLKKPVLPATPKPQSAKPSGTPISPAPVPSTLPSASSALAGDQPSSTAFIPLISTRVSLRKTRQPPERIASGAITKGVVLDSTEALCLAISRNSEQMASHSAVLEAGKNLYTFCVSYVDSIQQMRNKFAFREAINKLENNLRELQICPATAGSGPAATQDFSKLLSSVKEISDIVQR

For the compound `Cc1nc(Nc2ncc(C(=O)Nc3c(C)cccc3Cl)s2)cc(N2CCN(CCO)CC2)n1` [Dasa, dasatinib, reference compound], the “body weight / tolerability” value in [1] (mouse, in vivo, ip, 10 mg/kg) is recorded as “without significant loss of body weight”. For the same compound, in data set [2], the tumor growth entry is listed as “potent tumor growth inhibition”. Besides, in data set [3], the “pSTAT5 / STAT5 phosphorylation after drug withdrawal” value is listed as “gradually recovered”. Also, the “cell growth after drug removal” value in [4] is given as “gradually resumed; also recorded: rapid recovery”.

As for `Cc1nc(Nc2ncc(C(=O)Nc3c(C)cccc3Cl)s2)cc(N2CCN(CCOC(=O)CCOCCOCCNC(=O)C(N)CCCNC(=N)N)CC2)n1` (stereo not shown) [Arg-PEG2-Dasa], the IC50 in [5] came out at 0.53 nM.

`Cc1nc(Nc2ncc(C(=O)Nc3c(C)cccc3Cl)s2)cc(N2CCN(CCOC(=O)CCOCCOCCOCCOCCNC(=O)C(N)CCCNC(=N)N)CC2)n1` (stereo not shown) [Arg-PEG4-Dasa]: in data set [5], the IC50 amounted to 0.524 nM.

For orientation: Dmax means the greatest extent of degradation seen. Turning to `Cc1nc(Nc2ncc(C(=O)Nc3c(C)cccc3Cl)s2)cc(N2CCN(CCOC(=O)CCOCCNC(=O)[C@@H](N)CCCCN)CC2)n1` [Lys-PEG1-Dasa], the “time at which BCR–ABL reduction appears” value in data set [6] came to 48 h. The DC50 in [6] (48 h, listed as Lys-based PROTAC) was 0.98 nM; in data set [6] (48 h), 0.981 nM. Moreover, the greatest degradation seen (Dmax) at 0.005 µM in data set [7] amounted to 99.1%. The IC50 in data set [5] is 0.457 nM.

On to `Cc1nc(Nc2ncc(C(=O)Nc3c(C)cccc3Cl)s2)cc(N2CCN(CCOC(=O)CCOCCOCCOCCNC(=O)C(N)CCCNC(=N)N)CC2)n1` (stereo not shown) [Arg-PEG3-Dasa], for which the IC50 in [5] came out at 0.48 nM.

Turning to `CC(C)C[C@@H](C=O)NC(=O)[C@H](CC(C)C)NC(=O)[C@H](CC(C)C)NC(=O)OCc1ccccc1` [MG132, reference compound] (Cbz-Leu-Leu-Leu-aldehyde), the “effect on Arg-PEG1-Dasa–mediated degradation of BCR–ABL” value in [6] (MG132 10 μM or chloroquine 25 μM with Arg-PEG1-Dasa 1 nM, 48 h) was “blocked”.

On to `Cc1nc(Nc2ncc(C(=O)Nc3c(C)cccc3Cl)s2)cc(N2CCN(CCOC(=O)CCOCCNC(=O)[C@@H](N)CC(C)C)CC2)n1` [Leu-PEG1-Dasa], for which, in data set [6], the “time at which BCR–ABL reduction appears” value is given as 12 h. In addition, the DC50 in [6] (48 h, listed as Leu-based PROTAC) was determined as 0.48 nM; in [6] (48 h), 0.479 nM. In addition, the Dmax at 0.005 µM in [7] stood at 91.2%. In addition, in data set [5], the IC50 was determined as 0.22 nM.

As for `Cc1nc(Nc2ncc(C(=O)Nc3c(C)cccc3Cl)s2)cc(N2CCN(CCOC(=O)CCOCCNC(=O)[C@@H](N)Cc3ccccc3)CC2)n1` [Phe-PEG1-Dasa], the “time at which BCR–ABL reduction appears” value in [6] is 36 h. Further, the DC50 in data set [6] (48 h, listed as Phe-based PROTAC) came to 1.56 nM; in [6] (48 h) it was 1.56 nM. Moreover, the Dmax at 0.005 µM in data set [7] was 81%. In data set [5], the IC50 amounted to 0.294 nM.

In the case of `Cc1nc(Nc2ncc(C(=O)Nc3c(C)cccc3Cl)s2)cc(N2CCN(CCOC(=O)CCOCCNC(=O)C(N)CCCNC(=N)N)CC2)n1` (stereo not shown) [Arg-PEG1-Dasa], the “body weight / tolerability” value in data set [1] (nude mice, 10 mg/kg i.p. every other day, 10 doses) is “did not significantly alter the body weight; also recorded: without overt drug toxicity”. The “time at which BCR–ABL reduction appears” value in [6] turned out to be 48 h. Also, in [6] (1 nM 2 days, washout, compound-free medium), the “BCR–ABL protein level after drug withdrawal” value was “remained markedly diminished”. Moreover, the “BCR–ABL degradation kinetics (cycloheximide chase)” value in data set [6] (2.5 nM for 32 h, then cycloheximide) is “quickly reduced”. Further, the DC50 in data set [6] (48 h, listed as Arg-based PROTAC) was about 0.85 nM; in data set [6] (48 h), 0.85 nM and 0.849 nM. For the same compound, in [6] (Arg-PEG1-Dasa mixed with varying doses of second PROTAC), the “BCR–ABL degradation in combination with Lys-, Leu-, or Phe-PEG1-Dasa” value is recorded as “not further enhanced”. The “ubiquitination of immunoprecipitated BCR–ABL” value in [8] is “displayed the ubiquitination of immunoprecipitated BCR–ABL”. Further, the Dmax at 0.005 µM in [7] came to 98.8%. The IC50 in data set [5] is 0.359 nM. Also, the “BCR–ABL protein level in tumor” value in data set [9] was “significantly downregulated”. In data set [2] (10 mg/kg), the tumor growth result was “dramatically impeded tumor growth; also recorded: does not exhibit better antitumor effects than Dasa; also recorded: robust antitumor effects”. Moreover, in data set [3], the “pSTAT5 / STAT5 phosphorylation after drug withdrawal” value was “remained markedly diminished”. In data set [4], the “cell growth after drug removal” value was “sustained growth inhibition”.
